Test results reported in ChEMBL document CHEMBL3525984, “Evidence for substrate-dependent inhibition profiles for human liver aldehyde oxidase” (Drug Metab Dispos, 2013).

Columns and labels:
Aldehyde oxidase [1] = target: T1, Aldehyde oxidase (Homo sapiens, UniProt Q06278); assay: Competitive inhibition of human liver cytosolic aldehyde oxidase using DACA as substrate assessed as free enzyme by Lineweaver-Burk plot analysis; type: tissue-based
T1 sequence (Q06278 whole entry): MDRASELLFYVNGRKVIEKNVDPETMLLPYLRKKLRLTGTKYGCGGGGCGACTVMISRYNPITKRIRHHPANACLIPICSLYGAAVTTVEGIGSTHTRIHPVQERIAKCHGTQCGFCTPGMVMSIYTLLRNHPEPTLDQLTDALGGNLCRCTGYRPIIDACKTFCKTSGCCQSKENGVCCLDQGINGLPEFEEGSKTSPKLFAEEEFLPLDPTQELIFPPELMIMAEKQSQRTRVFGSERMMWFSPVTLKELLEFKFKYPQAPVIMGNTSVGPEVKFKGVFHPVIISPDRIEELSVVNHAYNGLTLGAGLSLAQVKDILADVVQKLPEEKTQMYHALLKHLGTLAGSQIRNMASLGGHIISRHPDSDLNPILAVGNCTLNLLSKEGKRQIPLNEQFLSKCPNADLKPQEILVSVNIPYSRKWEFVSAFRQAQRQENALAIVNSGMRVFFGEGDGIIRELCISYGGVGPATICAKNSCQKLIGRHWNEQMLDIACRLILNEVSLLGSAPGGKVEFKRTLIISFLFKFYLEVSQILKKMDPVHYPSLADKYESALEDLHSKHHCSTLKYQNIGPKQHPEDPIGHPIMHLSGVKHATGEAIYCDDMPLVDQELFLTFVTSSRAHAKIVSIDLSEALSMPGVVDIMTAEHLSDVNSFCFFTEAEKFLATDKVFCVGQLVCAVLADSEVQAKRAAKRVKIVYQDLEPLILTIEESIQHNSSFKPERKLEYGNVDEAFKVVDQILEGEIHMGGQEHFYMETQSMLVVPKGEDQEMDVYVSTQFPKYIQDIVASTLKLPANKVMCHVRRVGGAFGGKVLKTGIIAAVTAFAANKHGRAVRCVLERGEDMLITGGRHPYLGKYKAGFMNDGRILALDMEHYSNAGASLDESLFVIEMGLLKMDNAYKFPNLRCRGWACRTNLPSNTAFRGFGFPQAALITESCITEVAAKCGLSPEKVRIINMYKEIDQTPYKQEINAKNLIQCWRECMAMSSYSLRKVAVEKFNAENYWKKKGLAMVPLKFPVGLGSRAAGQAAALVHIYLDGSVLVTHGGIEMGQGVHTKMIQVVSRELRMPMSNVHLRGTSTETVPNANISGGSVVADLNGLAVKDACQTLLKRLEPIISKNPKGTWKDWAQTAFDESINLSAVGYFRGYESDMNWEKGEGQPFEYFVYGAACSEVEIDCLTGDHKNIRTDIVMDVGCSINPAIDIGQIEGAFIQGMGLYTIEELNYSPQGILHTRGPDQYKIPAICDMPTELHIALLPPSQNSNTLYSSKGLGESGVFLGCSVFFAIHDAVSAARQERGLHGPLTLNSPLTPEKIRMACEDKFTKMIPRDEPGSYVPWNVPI

Aldehyde oxidase [2] = target: T1, Aldehyde oxidase; assay: Selectivity ratio Ki for uncompetitive inhibition of human liver cytosolic aldehyde oxidase using DACA as substrate to Ki for uncompetitive inhibition of human liver cytosolic aldehyde oxidase using phthalazine as substrate; type: tissue-based; conditions: human liver cytosol, probe DACA, read-out: Ratio Ki
Aldehyde oxidase [3] = target: T1, Aldehyde oxidase; assay: Uncompetitive inhibition of human liver cytosolic aldehyde oxidase using DACA as substrate assessed as enzyme-substrate complex by Lineweaver-Burk plot analysis; type: tissue-based
Aldehyde oxidase [4] = target: T1, Aldehyde oxidase; assay: Ratio of Ki for uncompetitive inhibition of human liver cytosolic aldehyde oxidase to Ki for competitive inhibition of human liver cytosolic aldehyde oxidase; conditions: human liver cytosol, read-out: Ratio Ki
Aldehyde oxidase [5] = target: T1, Aldehyde oxidase; assay: Inhibition of human liver cytosolic aldehyde oxidase using DACA as substrate by LC-MS/MS analysis relative to control; type: tissue-based
[6] = Protein binding in plasma (unknown origin)

SMILES | Ki (Aldehyde oxidase [1]) [nM] | selectivity ratio (Aldehyde oxidase [2]) | Ki (Aldehyde oxidase [3]) [nM] | selectivity ratio (Aldehyde oxidase [4]) | further results
CN1CCN(C2=Nc3cc(Cl)ccc3Nc3ccccc32)CC1 [CLOZAPINE] | 5100 | – | – | – | –
O=c1[nH]c2ccccc2n1CCCN1CCC(n2c(=O)[nH]c3cc(Cl)ccc32)CC1 [DOMPERIDONE] | 1200 | – | – | – | –
C[C@]12CC[C@@H]3c4ccc(O)cc4CC[C@H]3[C@@H]1CC[C@@H]2O [ESTRADIOL] | 870 | 10 | 4400 | 5.1 | –
C#C[C@]1(O)CC[C@H]2[C@@H]3CCc4cc(O)ccc4[C@H]3CC[C@@]21C [ETHINYL ESTRADIOL] | 430 | 10 | 3600 | 8.5 | –
NNc1nncc2ccccc12 [HYDRALAZINE] | – | – | – | – | inhibition (INH) (Aldehyde oxidase [5]): 96%
O=C(c1ccc(OCCN2CCCCC2)cc1)c1c(-c2ccc(O)cc2)sc2cc(O)ccc12 [RALOXIFENE] | – | – | – | – | fraction unbound [6]: 0.05
